The numbers were not newly measured in patent US5707615A, “Method of treating HIV infections with anti-viral formulations” (Merrell Pharmaceuticals Inc., priority 1997, dated 1998), which cites them from elsewhere.

In series [1] the test system is influenza. As to conditions: cited from earlier work.
In series [2] the test system is HIV. As to conditions: cited from earlier work.

As to 2-deoxy-2-fluoroglucose, the viral protein glycosylation entry in series [1] is “inhibited viral protein glycosylation”.
`O=CC[C@@H](O)[C@H](O)[C@H](O)CO` [2-deoxy-D-glucose]: the viral protein glycosylation result in series [1] is on record as “inhibited viral protein glycosylation”. Moreover, the “expression of HIV glycoproteins and formation of syncytia” value in series [2] is “inhibit expression of HIV glycoproteins and block the formation of syncytia”.
